Experimental findings from PubChem BioAssay (NCI) are described below.

Assay in all cases: NCI anticancer screen, dose series, 48 h
The subject of assay [1] is 786-0 renal.
The test system of assay [2] is A498 renal.
Assay [3] relates to A549 NSCLC.
The subject of assay [4] is CCRF-CEM leukemia.
The subject of assay [5] is COLO 205 colon.
The subject of assay [6] is HCT-116 colon.
The test system of assay [7] is HCT-15 colon.
In assay [8] the test system is HS 578T breast.
For assay [9], the system named is MCF7 breast.
The test system of assay [10] is MOLT-4 leukemia.
In assay [11] the test system is NCI-H226 lung.
In assay [12] the test system is OVCAR-5 ovarian.
The test system of assay [13] is UO-31 renal.

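Following 48 hours of exposure in 96-well plates, responses at five concentrations were used to interpolate endpoints linearly. The concentration for 50% growth inhibition is given as GI50. At the TGI there is no net growth.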

Take `Cc1nc2c(=O)n3c4c(cccc4c2o1)CCC3`: the TGI in assay [1], in [2], in assay [3], in assay [4], in assay [5] and in [6] was above 100 µM in each case. Besides, the TGI in assay [7], in assay [8], in [9], in assay [10], in [11] and in [12] was above 100 µM each time. The compound further showed a TGI in assay [13] above 100 µM.

Consider `CCOC(=O)C(=O)C(CCC(=O)c1ccc2ccccc2c1O)C(=O)OCC` (configuration not stated), for which the TGI in assay [1], in assay [2], in [3], in assay [4], in assay [5] and in assay [6] was above 100 µM each time. Further, the TGI in [7], in assay [8], in assay [9], in assay [10], in assay [11] and in [12] was above 100 µM throughout. Moreover, the TGI in assay [13] is above 100 µM.

In the case of `C/C(=N\Nc1nc2ccccc2s1)c1cc(C)ncn1`, the TGI is above 47.3 µM in assay [1]; above 100 µM in assay [2]; above 45.2 µM in assay [3]; 4.2 µM in assay [4]; 4.71 µM in assay [5]; above 27.2 µM in [6]. Also, the TGI was 13 µM in assay [7]; 12.7 µM in assay [8]; above 19.4 µM in assay [9]; 4.15 µM in [10]; 4.46 µM in assay [11]; above 68.2 µM in assay [12]. Besides, the TGI in assay [13] was 3.84 µM.

`N#CCCN(CCN(CCC#N)C(=O)Nc1ccccc1)C(=O)Nc1ccccc1`: the TGI in assay [1], in [2], in [3], in [4], in [5] and in assay [6] was above 100 µM throughout. Further, the TGI in assay [7], in assay [8], in assay [9], in assay [10], in [11] and in assay [12] was above 100 µM in each case. Moreover, the TGI in assay [13] is above 100 µM.

Consider `Cc1c(C)c(S(=O)(=O)N(CCCCCON)OCCCN)c(C)c2c1OC(C)(C)CC2`, for which the TGI in assay [1] was above 100 µM; in assay [2], 28.3 µM; in assay [3], 26.1 µM; in assay [4] it was 3.47 µM; in assay [5] it was 10.3 µM; in assay [6], above 100 µM. The TGI in assay [7] was 28.5 µM; in [8], 41.7 µM; in [9], 21.8 µM; in assay [10], 30 µM; in assay [11] it was 36.7 µM; in [12] it was 28.2 µM. In assay [13], this compound yielded a TGI of 30.2 µM.

For `O=C1c2ccccc2C(=O)c2oc(Br)cc21`, the TGI in assay [1] was found to be 2.98 µM; in assay [2] it was 3.49 µM; in [3], 1.03 µM; in assay [4], 6.66 µM; in [5], 3.47 µM; in assay [6] it was 2.7 µM. Moreover, the TGI was 1.91 µM in assay [7]; 0.732 µM in assay [8]; 1.96 µM in [9]; 4.27 µM in assay [10]; 3.22 µM in assay [11]; 3.16 µM in assay [12]. Moreover, the TGI in assay [13] came to 2.85 µM.

Consider `C/C(=N\NC(=S)NCc1ccccc1)c1nc2ncccc2[nH]1`, for which the TGI in assay [1] was above 100 µM; in assay [2], 50 µM; in assay [3], above 100 µM; in assay [4], 19.2 µM; in assay [5] it was 34.4 µM; in assay [6], 17.3 µM. Also, the TGI in assay [7] was 37.2 µM; in [8], above 100 µM; in [9] it was 16.2 µM; in assay [10] it was 17.5 µM; in assay [11], 20.8 µM; in [12], 30.2 µM. This compound registered a TGI in assay [13] of 11 µM.

As to `CC1=NN=C(N)NC1=CC(Sc1ccc(Cl)cc1)c1c(O)ccc2ccccc12` (configuration not stated), the TGI is above 65.6 µM in assay [1]; 37.5 µM in assay [2]; above 92.9 µM in [3]; 31.5 µM in assay [4]; 36.8 µM in assay [5]; above 63.2 µM in [6]. Also, the TGI in assay [7] was above 63.3 µM; in assay [8], 41.3 µM; in [9], 73.9 µM; in [10] it was above 84.9 µM; in assay [11], 14 µM; in assay [12], above 61.9 µM. The compound also registered a TGI in [13] above 67.6 µM.

On to `Nc1nc(N)c2nc(CNc3ccc(C(=O)NC(CCCCNC(=O)c4ccccc4C(=O)O)C(=O)O)cc3)cnc2n1` (configuration not stated), for which the TGI in assay [1], in assay [2], in assay [3], in assay [4], in assay [5] and in assay [6] was above 100 µM throughout. For the same compound, the TGI in [7], in assay [8], in assay [9], in assay [10], in [11] and in assay [12] was above 100 µM each time. The TGI in [13] was above 100 µM. In addition, the GI50 is 82.1 nM in assay [2]; 7.45 nM in assay [3]; 3.06 nM in assay [4]; 537 nM in assay [5]; 0.622 nM in assay [6]; 5.22 nM in assay [7]. Further, the GI50 in assay [9] is 4.96 nM.

In the case of `N#Cc1c(N2CCOCC2)[nH]c(=O)c(C(c2c(Cl)cccc2Cl)c2c(O)c(C#N)c(N3CCOCC3)[nH]c2=O)c1O`, the TGI in assay [1] was above 100 µM; in assay [2], above 100 µM; in [3], above 100 µM; in assay [4] it was 66.8 µM; in assay [5], 26.7 µM; in [6], above 100 µM. In addition, the TGI in [7] is 28.2 µM; in assay [8] it was 58.1 µM; in assay [9], 34.2 µM; in assay [10], 36.2 µM; in [11], 37.5 µM; in assay [12], 31.9 µM. This compound gave a TGI in [13] of 33.5 µM.

On to `C/C=C/[C@H](O[Si](C)(C)C(C)(C)C)[C@@H](O)/C=C/C(=O)OCC`, for which the TGI is 41.5 µM in assay [1]; 67.9 µM in assay [2]; above 100 µM in assay [3]; 35.4 µM in assay [4]; 40.6 µM in [5]; 32.3 µM in [6]. Moreover, the TGI in [7] is 27.7 µM; in assay [8] it was 79.5 µM; in [9], 45.2 µM; in assay [10], 37.6 µM; in assay [11] it was 83.7 µM; in assay [12], 79.5 µM. For the same compound, in [13], the TGI came to 42.5 µM.

Consider `CCOC(=O)/C(C#N)=C/c1ccc2c(c1)CC1(C2)Cc2cc(CC)c(C(C)O)cc2C1` (configuration not stated), for which the TGI in [1] was 39 µM; in assay [2], above 90.4 µM; in [3], above 100 µM; in assay [4], 27.2 µM; in [5], 66.2 µM; in assay [6] it was 15 µM. The TGI in [7] is 20 µM; in assay [8], 60.8 µM; in [9], 23.9 µM; in [10], above 58.6 µM; in [11], above 64.6 µM; in assay [12] it was above 93.1 µM. The TGI in [13] is 60.8 µM.

Take `COc1ccc(CCNCCCC2c3ccccc3-c3ccccc32)cc1OC`: the TGI in assay [1] was determined as 28.9 µM; in assay [2] it was 19.5 µM; in [3], 31.4 µM; in [4], 49 µM; in assay [5] it was 3.4 µM; in assay [6], 25.8 µM. The TGI worked out at 29 µM in assay [7]; 39.8 µM in assay [8]; 20.3 µM in [9]; 41.8 µM in [10]; 31.4 µM in assay [11]; 33.4 µM in assay [12]. In assay [13], this compound registered a TGI of 24.4 µM.

Consider `S=C1N=C(Cl)/C(=C\c2ccccc2)N1`, for which the TGI in [1] was above 100 µM; in [2] it was above 100 µM; in assay [3], above 100 µM; in assay [4], above 31.6 µM; in assay [5], above 100 µM; in assay [6] it was above 100 µM. For the same compound, the TGI in [7], in assay [8], in assay [9], in assay [10], in assay [11] and in assay [12] was above 100 µM in each case. For the same compound, the TGI in assay [13] is above 100 µM.

`C=CCn1c(-c2ccc(-c3cs/c(=N\N=O)n3CC=C)cc2)cs/c1=N\N=O`: the TGI in [1], in assay [2], in [3], in [4], in assay [5] and in assay [6] was above 100 µM in each case. Further, the TGI in assay [7], in assay [8], in assay [9], in assay [10], in assay [11] and in assay [12] was above 100 µM each time. Also, the TGI in assay [13] was above 100 µM.

As to `COC(=O)c1ccc(NCc2cc(O)ccc2O)cc1`, the TGI in assay [1] is 22.3 µM; in assay [2] it was 29.7 µM; in assay [3] it was 39.2 µM; in assay [4], 10.8 µM; in [5], 29 µM; in assay [6] it was 35.7 µM. The TGI stood at 19.5 µM in [7]; 18.5 µM in [8]; 27.3 µM in [9]; 31.5 µM in [10]; 24.9 µM in assay [11]; 29.1 µM in assay [12]. In [13], this compound registered a TGI of 26.3 µM.

Turning to `CN(C)Cc1cc(N=Nc2ccc(Cl)cc2)ccc1OC(=O)c1ccccc1`, the TGI in assay [1] was found to be 27.8 µM; in [2], 31.5 µM; in assay [3], 13.6 µM; in assay [4], 38.8 µM; in assay [5] it was 40.8 µM; in assay [6], 29.9 µM. Besides, the TGI amounted to 29.1 µM in [7]; 46.9 µM in assay [8]; 28.7 µM in [9]; 26.1 µM in assay [10]; 54.3 µM in assay [11]; 30.6 µM in assay [12]. This compound showed a TGI in assay [13] of 25.2 µM.

Turning to `CC(=O)O[C@@H](C1C[C@@H](C)[C@H]2[C@@](O)(O1)[C@H](O)[C@@]1(C)C3=CC[C@H]4C(C)(C)[C@@H](OC5OCC(O)C(O)C5O)CC[C@@]45C[C@@]35CC[C@]21C)C(C)(C)O` (some centres not stated), the TGI is 63.6 µM in assay [1]; 63 µM in assay [2]; above 100 µM in assay [3]; 24.4 µM in assay [4]; 48.4 µM in assay [5]; 41.5 µM in [6]. Besides, the TGI is 71.1 µM in assay [7]; above 100 µM in [8]; 50.3 µM in assay [9]; 44.8 µM in assay [10]; 45.9 µM in assay [11]; 56.6 µM in assay [12]. Further, the TGI in [13] turned out to be 62.2 µM.

Turning to `CN(C)CC1CN=C(NC(=O)Nc2ccccc2)O1` (configuration not stated), the TGI in [1], in [2], in assay [3], in assay [4], in assay [5] and in assay [6] was above 100 µM throughout. In addition, the TGI in assay [7], in [8], in assay [9], in [10], in [11] and in assay [12] was above 100 µM throughout. Further, the TGI in assay [13] was above 100 µM.

Regarding `CC(=O)c1cc(C)n2c1CS[C@@H]2c1ccccc1`, the TGI in assay [1] is 50.5 µM; in [2] it was above 100 µM; in [3], above 100 µM; in assay [4], 60.9 µM; in assay [5] it was 29 µM; in assay [6], above 100 µM. The TGI was above 100 µM in assay [7]; above 100 µM in assay [8]; above 100 µM in assay [9]; 96.5 µM in assay [10]; above 100 µM in assay [11]; above 100 µM in assay [12]. Besides, in assay [13], the TGI was above 100 µM.
